Patent US10968225B2, “Compounds and compositions for the treatment of cystic fibrosis” (Fondazione Istituto Italiano Di Tecnologia, priority 2017, dated 2021)

How the values were obtained:
Type in all cases: cell-based
[1] = target: T1, F508del-CFTR (Homo sapiens, UniProt P13569, DEL508-508); assay: Transepithelial electrical conductance (TEEC) in FRT cells; design: expressed in transfected cells; host or cells: FRT cells; details: compounds tested at 5.0 µM; FRT cells expressing F508del-CFTR; 24 hrs incubation; forskolin and genistein stimulation minus PPQ-102 block
Protocol: Transepithelial Electrical Conductance (TEEC)
FRT cells expressing F508del-CFTR were plated on HTS Transwell-24 well permeable supports (Code 3379, Corning Life Sciences) at a density of 200,000 cells/well. After six days, cells were incubated for 24 hrs with test correctors, vehicle, or VX-809. Compounds were dissolved in both basolateral (800 μL) and apical (300 μL) culture medium. After treatment, the culture medium was removed and replaced on both sides with a saline solution containing (in mM): 130 NaCl, 2.7 KCl, 1.5 KH2PO4, 1 CaCl2, 0.5 MgCl2, 10 glucose, 10 Na-Hepes (pH 7.4). The basolateral and apical side received 800 μL and 100 μL, respectively. The 24-well tray with cells was placed on a block heater (SBH 130D, Stuart) to keep the temperature at 37° C. during the entire experiment. After 10 min, the basal transepithelial electrical resistance (TEER) across each layer of FRT cells was measured with a STX100C electrode pair connected to an EVOM2 voltohmeter (World Precision Instruments). To stimulate F508del-CFTR, each well received (apical side) 50 μL of saline solution containing 60 μM forskolin and 150 μM genistein (final concentrations: 20 μM forskolin, 50 μM genistein). Forskolin was also pipetted in the basolateral medium to obtain the 20 μM concentration. After 10 min TEER was measured again in each well. To block F508del-CFTR function, the inhibitor PPQ-102 was used at the final concentration of 30 μM. To achieve the desired concentration, 75 μL of the apical solution in each well was replaced with an equal volume of saline solution containing 20 μM forskolin, 50 μM genistein, and 60 μM PPQ-102. After further 10 min, the transepithelial electrical resistance was measured. All values of TEER were converted to transepithelial electrical conductance (TEEC) using the formula TEEC=1/TEER. The parameter to indicate activity of F508del-CFTR in each well (ΔTEEC) was calculated from the difference in TEEC measured after maximal stimulation of F508del-CFTR with forskolin and genistein and after block with PPQ-102.
Corrector activities obtained on selected compounds tested at 5.0 µM (expressed as ΔTEEC values) are illustrated in table 2, wherein +: ΔTEEC<2000 µS; ++: 2000 µS<ΔTEEC<3000[…]S; +++: ΔTEEC>3000 µS.

[2] = target: T1, F508del-CFTR; assay: Short-circuit current recordings on human bronchial epithelial cells; design: Human bronchial epithelial (HBE) cells obtained from CF patients (F508del/F508del genotype); endogenous in cells; host or cells: primary human bronchial epithelial cells from CF patients, F508del/F508del; details: compounds tested at 1.0 µM; HBE cells from CF patients (F508del/F508del); 24 hrs treatment; CPT-cAMP plus VX-770 minus CFTRinh-172
Protocol: Short-Circuit Current Recordings on Human Bronchial Epithelial Cells
Human bronchial epithelial (HBE) cells obtained from CF patients (F508del/F508del genotype) were plated on Snapwell inserts (Code 3801, Corning Life Sciences) at a density of 500,000 cells per insert. Cells were cultured for two weeks in a differentiating medium whose compositions has been previously described (Scudieri et al., J Physiol 590:6141-6155, 2012). For the first week, the medium was kept on both apical and basolateral sides of inserts (submerged condition). For the second week, the apical medium was removed (air-liquid condition, ALC). To test the activity of correctors, cells were treated for 24 hrs with compounds dissolved in the basolateral medium. After treatment, Snapwell inserts carrying differentiated bronchial epithelia were mounted in a vertical chamber resembling an Ussing system with internal fluid circulation. Both apical and basolateral hemichambers were filled with 5 mL of a Krebs bicarbonate solution containing (in mM): 126 NaCl, 0.38 KH2PO4, 2.13 K2HPO4, 1 MgSO4, 1 CaCl2, 24 NaHCO3, and 10 glucose. Both sides were continuously bubbled with a gas mixture containing 5% CO2-95% air and the temperature of the solution was kept at 37° C. The transepithelial voltage was short-circuited with a voltage-clamp (DVC-1000, World Precision Instruments) connected to the apical and basolateral chambers via Ag/AgCl electrodes and agar bridges (1 M KCl in 1% agar). The offset between voltage electrodes and the fluid resistance were canceled before experiments. The short-circuit current was recorded with a PowerLab 4/25 (ADInstruments) analogical to digital converter connected to a Macintosh computer. […] The difference between the current measured with CPT-cAMP plus potentiator and the current remaining after CFTRinh-172 treatment ([…]ICFTR) was taken as the parameter reflecting F508del-CFTR expression in the apical membrane.
Activities of selected compounds on HBE cells tested at 1.0 µM (expressed as […]ICFTR) are illustrated in table 3 wherein +: […]ICFTR<2.0 µA; ++: 2 μA<[…]ICFTR<3.0 μA; +++: […]ICFTR>3.0 µA.

[3] = target: T2, mutant CFTR (Homo sapiens, UniProt P13569, DEL508-508); assay: Fluorescence (HS-YFP) assay for CFTR activity, corrector assay; details: CFBE41o- and FRT cells with stable expression of mutant CFTR, read-out: activity (EC50)
T2 construct: expressed in transfected cells
T2 sequence (P13569 with tags, fused parts or gaps DEL508-508): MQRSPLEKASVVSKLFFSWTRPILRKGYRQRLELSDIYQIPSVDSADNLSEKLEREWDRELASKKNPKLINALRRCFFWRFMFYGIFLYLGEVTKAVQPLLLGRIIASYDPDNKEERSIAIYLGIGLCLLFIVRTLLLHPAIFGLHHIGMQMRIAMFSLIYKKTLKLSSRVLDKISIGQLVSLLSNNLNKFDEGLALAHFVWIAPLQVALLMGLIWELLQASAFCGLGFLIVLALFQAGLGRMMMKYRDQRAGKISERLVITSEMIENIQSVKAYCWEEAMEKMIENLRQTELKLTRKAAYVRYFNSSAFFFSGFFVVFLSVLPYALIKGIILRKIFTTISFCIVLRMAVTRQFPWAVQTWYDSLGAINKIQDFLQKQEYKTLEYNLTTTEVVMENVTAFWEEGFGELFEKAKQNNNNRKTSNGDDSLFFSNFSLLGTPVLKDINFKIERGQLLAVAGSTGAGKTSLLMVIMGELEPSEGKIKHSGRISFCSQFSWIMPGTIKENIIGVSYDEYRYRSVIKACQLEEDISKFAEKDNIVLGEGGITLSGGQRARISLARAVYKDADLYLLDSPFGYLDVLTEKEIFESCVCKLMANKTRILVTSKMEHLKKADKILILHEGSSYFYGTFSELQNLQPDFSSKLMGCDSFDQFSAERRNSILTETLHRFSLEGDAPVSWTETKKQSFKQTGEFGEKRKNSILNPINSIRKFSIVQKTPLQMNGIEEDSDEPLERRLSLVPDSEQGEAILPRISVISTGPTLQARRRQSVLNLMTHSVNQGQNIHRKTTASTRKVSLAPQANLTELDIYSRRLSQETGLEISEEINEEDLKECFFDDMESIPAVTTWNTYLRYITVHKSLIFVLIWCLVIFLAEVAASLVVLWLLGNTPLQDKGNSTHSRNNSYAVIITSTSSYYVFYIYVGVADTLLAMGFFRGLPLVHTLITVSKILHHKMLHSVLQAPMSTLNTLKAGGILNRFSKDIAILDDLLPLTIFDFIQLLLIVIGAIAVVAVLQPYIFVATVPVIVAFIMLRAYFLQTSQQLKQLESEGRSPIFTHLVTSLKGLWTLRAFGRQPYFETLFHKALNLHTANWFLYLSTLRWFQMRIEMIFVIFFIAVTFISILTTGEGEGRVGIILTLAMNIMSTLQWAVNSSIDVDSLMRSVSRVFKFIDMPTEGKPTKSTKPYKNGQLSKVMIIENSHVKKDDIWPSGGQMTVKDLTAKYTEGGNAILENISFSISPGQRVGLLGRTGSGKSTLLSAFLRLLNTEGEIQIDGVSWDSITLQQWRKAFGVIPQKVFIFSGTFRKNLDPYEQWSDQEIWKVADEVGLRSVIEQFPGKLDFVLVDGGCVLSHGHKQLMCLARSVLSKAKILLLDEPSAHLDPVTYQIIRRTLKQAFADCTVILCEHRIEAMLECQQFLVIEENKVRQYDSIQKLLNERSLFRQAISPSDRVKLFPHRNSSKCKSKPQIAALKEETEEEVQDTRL

T1 sequence (P13569 with tags, fused parts or gaps DEL508-508): as above

SMILES | Corrector activity (expressed as ΔTEEC values) [1] | activity on HBE cells (expressed as […]ICFTR) [2] | EC50 [3] [µM]
COC(=O)c1cccc(CN2CCc3c(c(C(F)(F)F)nn3-c3cccc(C(=O)N(C)c4ccc5c(c4)OCO5)c3)C2)c1 [Compound 020, Methyl 3-[[1-[3-[1,3-benzodioxol-5-yl(methyl)carbamoyl]phenyl]-3-(trifluoromethyl)-6,7-dihydro-4H-pyrazolo[4,3-c]pyridin-5-yl]methyl]benzoate] | +++ (ΔTEEC>3000 µS) | ++ (2 μA<[…]ICFTR<3.0 μA) | < 1
CN(C(=O)c1cccc(-n2nc(C(F)(F)F)c3c2CCN(Cc2ccccc2)C3)c1)c1ccc2c(c1)OCO2 [Compound 012, N-(1,3-Benzodioxol-5-yl)-3-[5-benzyl-3-(trifluoromethyl)-6,7-dihydro-4H-pyrazolo[4,3-c]pyridin-1-yl]-N-methyl-benzamide] | ++ (2000 µS<ΔTEEC<3000[…]S) | + ([…]ICFTR<2.0 µA) | < 1
CN(C(=O)c1cccc(-n2nc(C(F)(F)F)c3c2CC2CCC3N2C(=O)OC(C)(C)C)c1)c1ccc2c(c1)OCO2 (racemic) [Compound 018, tert-Butyl 1-(3-(benzo[d][1,3]dioxol-5-yl(methyl)carbamoyl)phenyl)-3-(trifluoromethyl)-1,4,5,6,7,8-hexahydro-4,7-epiminocyclohepta[c]pyrazole-9-carboxylate] | +++ (ΔTEEC>3000 µS) | +++ ([…]ICFTR>3.0 µA) | < 1
CN1CCc2c(c(C(F)(F)F)nn2-c2cccc(C(=O)N(C)c3ccc4c(c3)OCO4)c2)C1 [Compound 003, N-(1,3-Benzodioxol-5-yl)-N-methyl-3-[5-methyl-3-(trifluoromethyl)-6,7-dihydro-4H-pyrazolo[4,3-c]pyridin-1-yl]benzamide] | ++ (2000 µS<ΔTEEC<3000[…]S) | ++ (2 μA<[…]ICFTR<3.0 μA) | < 1
CN(C(=O)c1cccc(-n2nc(C(F)(F)F)c3c2CCN(C(=O)C(C)(C)C)C3)c1)c1ccc2c(c1)OCO2 [Compound 011, N-(1,3-Benzodioxol-5-yl)-3-[5-(2,2-dimethylpropanoyl)-3-(trifluoromethyl)-6,7-dihydro-4H-pyrazolo[4,3-c]pyridin-1-yl]-N-methyl-benzamide] | ++ (2000 µS<ΔTEEC<3000[…]S) | ++ (2 μA<[…]ICFTR<3.0 μA) | < 1
CN(C(=O)c1cccc(-n2nc(C(F)(F)F)c3c2CCN(C(=O)Nc2ccccc2)C3)c1)c1ccc2c(c1)OCO2 [Compound 010, 1-[3-[1,3-Benzodioxol-5-yl(methyl)carbamoyl]phenyl]-N-phenyl-3-(trifluoromethyl)-6,7-dihydro-4H-pyrazolo[4,3-c] pyridine-5-carboxamide] | ++ (2000 µS<ΔTEEC<3000[…]S) | ++ (2 μA<[…]ICFTR<3.0 μA) | < 1
CN(C(=O)c1cccc(-n2nc(C(F)(F)F)c3c2CCN(C2CCC2)C3)c1)c1ccc2c(c1)OCO2 [Compound 032, N-(1,3-Benzodioxol-5-yl)-3-[5-cyclobutyl-3-(trifluoromethyl)-6,7-dihydro-4H-pyrazolo[4,3-c]pyridin-1-yl]-N-methyl-benzamide] | ++ (2000 µS<ΔTEEC<3000[…]S) | ++ (2 μA<[…]ICFTR<3.0 μA) | < 1
